Read-outs that look alike come from different tables or passages of the source.
Columns and labels:
rats = tested on: rats; set-up: method as in PMID 8935785; conditions: dietary exposure 90 days; cited from earlier work
human TTR [1] = target: T1, human TTR (Homo sapiens, UniProt P02766); assay: Competition with [125I]-T4 for binding to transthyretin; conditions: for Relative potency (REP), Exp 1 / Relative potency (REP), Exp 2 / Relative potency (REP), Mean: TTR binding relative to T4; for IC50: TTR binding, [125I]-T4 competition
T1 construct: purchased Sigma Aldrich
Experimental: Full dose-response curves within the range of 1–100 nM were determined for each OH-PCB metabolite.

human TTR [2] = target: T1, human TTR; assay: as above; conditions: @100 nM
HepG2 cells = tested on: HepG2 cells; set-up: method as in Al-Anati et al., in preparation; conditions: ref Al-Anati et al., in preparation; cited from earlier work
[3] = read-out: IC50, Full dose-resonse experiments, Exp 1
[4] = read-out: IC50, Full dose-resonse experiments, Exp 2

SMILES	NOAEL (rats) [mg/kg diet]	NOAEL, equivalent daily dose (rats) [µg/kg bw/day]	NOAEL, equivalent total dose (rats) [mg/kg bw]	Relative potency (REP), Exp 1 (human TTR [1])	Relative potency (REP), Exp 2 (human TTR [1])	Relative potency (REP), Mean (human TTR [1])	IC50 (human TTR [1]; n = 2, read-out: IC50, Mean) [nM]	IC50 (human TTR [1]; [3]) [nM]	IC50 (human TTR [1]; [4]) [nM]	T4 displacement, Pilot experiment (human TTR [2]) [% T4 displacement @100 nM]	Expression of DNA damage markers pChk1Ser317 and γH2AXSer319 (HepG2 cells)
Clc1cc(Cl)c(-c2cc(Cl)c(Cl)cc2Cl)cc1Cl [PCB 153, 2,2′,4,4′,5,5′-hexachlorobiphenyl]	0.5	34	3.1	–	–	–	–	–	–	–	–
Oc1c(Cl)cc(Cl)c(-c2cc(Cl)c(Cl)c(Cl)c2Cl)c1Cl [3' OH-PCB 182]	–	–	–	3.68	2.68	3.18	19	17.4	20.5	93	–
Oc1c(Cl)c(Cl)cc(-c2cc(Cl)c(Cl)c(Cl)c2Cl)c1Cl [3'-OH-PCB 180]	–	–	–	3.96	2.84	3.40	17.8	16.2	19.4	95	induced
Oc1c(Cl)c(Cl)c(Cl)c(-c2cc(Cl)c(Cl)cc2Cl)c1Cl [5-OH-PCB 183]	–	–	–	3.54	2.61	3.08	19.6	18.1	21.1	92	–
Oc1c(Cl)cc(-c2cc(Cl)c(Cl)c(Cl)c2Cl)c(Cl)c1Cl [4'-OH-PCB 172]	–	–	–	5.37	3.90	4.64	13	11.9	14.1	95	–
